# Laboratory results taken from patent US5811445A, “Method of preventing abnormal stimulation of AT1 and AT2 receptors” (Roussel Uclaf, priority 1994, dated 1998).
# Where two headings read alike, the source gives them in different places.
# Legend:
# [1] = target: T1, AT2 receptor of angiotensin II (Oryctolagus cuniculus, UniProt G1T351); assay: Test on the AT2 receptor of angiotensin II (displacement of 125I angiotensin II, rabbit uterus membranes); format: binding
# T1 construct: A fresh membrane preparation obtained from rabbit's uterus is used; from tissue; host or cells: uterus membranes of estradiol-treated rabbits
# T1 sequence (G1T351 1-363): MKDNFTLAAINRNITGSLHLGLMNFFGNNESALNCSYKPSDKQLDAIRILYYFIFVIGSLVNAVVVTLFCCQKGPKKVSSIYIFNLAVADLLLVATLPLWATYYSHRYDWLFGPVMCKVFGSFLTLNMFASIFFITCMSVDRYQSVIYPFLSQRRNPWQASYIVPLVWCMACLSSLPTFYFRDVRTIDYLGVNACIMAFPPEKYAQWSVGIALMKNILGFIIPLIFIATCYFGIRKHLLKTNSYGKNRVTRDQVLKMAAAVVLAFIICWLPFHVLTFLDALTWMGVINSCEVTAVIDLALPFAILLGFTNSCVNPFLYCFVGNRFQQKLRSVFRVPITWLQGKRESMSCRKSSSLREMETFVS
# Experimental: 2) Test on the AT2 receptor of angiotensin II
# The tissue is ground up in a polytron in a 50 mM Tris buffer pH 7.4, and the grinding is followed by 3 centrifugations at 30,000 g for 15 minutes, with intermediate take up of the pellets in the Tris buffer pH 7.4.
# The homogenate obtained is preincubated for 20 minutes at 25° C. in the presence of 10 mM dithiothreitol, then brought back to 0°-4° C.
# (§1) The product is first tested at 3.10^-5 M three times. When the tested product displaces more than 50% of the radioactivity specifically bound to the receptor, it is tested again according to a range of 7 concentrations in order to determine the concentration which inhibits by 50% the radioactivity specifically bound to the receptor. In this way the 50% inhibitory concentration is determined.
# (§2) After incubation at 25° C. for 150 minutes, placing in a water-bath at 0° C. for 5 minutes, filtration under vacuum, and rinsing with Tris buffer pH 7.4, the radioactivity is counted in the presence of a scintillating solid.
# [2] = test system: angiotensin II (pressure effects); assay: Test for antagonistic activity of angiotensin II in the demedullated rat; format: in vivo, Male Sprague-Dawley rats; settings: IV, inhibition of pressure effects of angiotensin II (0.75 micrograms/kg), read-out: ID50 IV
# Experimental: 3 - Test for antagonistic activity of angiotensin II in the demedullated rat
# Male Sprague-Dawley rats (250 to 350 g) are anaesthetized by an intraperitoneal injection with sodium pentobarbital (60 mg/kg). The diastolic arterial pressure is recorded by means of a heparin catheter (PE50) introduced into the left carotid of the animal, and connected to a pressure processor (Gould, Pressure Processor) via a Gould pressure sensor.
# A catheter is introduced into the right jugular vein of the animal in order to allow injection of the molecules being studied.
# The animal is placed under assisted respiration. A bilateral section of the vagus nerves is carried out. The rat is then demedullated.
# After a sufficient stabilization period, study of the antagonism of the molecules vis-a-vis angiotensin II (Hypertensin, CIBA) is carried out in the following manner:
# 1 - Three consecutive injections of angiotensin II (0.75 micrograms/kg) 15 minutes apart allow a reproducible and stable pressure response to be obtained.
# 2 - While maintaining a periodicity of 15 minutes for the administration of angiotensin II, the molecules (0.01 to 10 mg/kg) are injected 5 minutes before the angiotensin II.
# The pressure effects of angiotensin II in the presence of the antagonist are expressed as a percentage of the pressure effects of angiotensin II administered alone. The 50% inhibitory dose (ID50) of the effect studied is thus determined.
# Each animal is considered as its own control.
# [3] = target: T2, AT1 receptor of angiotensin II (Rattus norvegicus, UniProt P25095); assay: Test on the AT1 receptor of angiotensin II (displacement of 125I angiotensin II, rat liver membranes); format: binding
# T2 construct: A fresh membrane preparation obtained from rat's liver is used; from tissue; host or cells: rat liver membranes
# T2 sequence (P25095 1-359): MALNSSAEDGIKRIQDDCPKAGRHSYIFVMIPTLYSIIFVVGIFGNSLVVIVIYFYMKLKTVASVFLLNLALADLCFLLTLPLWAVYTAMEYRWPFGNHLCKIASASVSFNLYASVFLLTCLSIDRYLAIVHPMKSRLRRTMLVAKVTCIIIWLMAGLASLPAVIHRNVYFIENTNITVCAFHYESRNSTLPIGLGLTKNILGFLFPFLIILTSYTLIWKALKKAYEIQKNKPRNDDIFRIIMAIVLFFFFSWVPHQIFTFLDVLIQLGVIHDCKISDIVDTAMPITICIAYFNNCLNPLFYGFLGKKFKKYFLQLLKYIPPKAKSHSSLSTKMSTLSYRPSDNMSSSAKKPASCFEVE
# Experimental: 1 - Test on the AT1 -receptor of angiotensin II
# A fresh membrane preparation obtained from rat's liver is used. The tissue is ground up in a polytron in a 50 mM Tris buffer pH 7.4, the grinding is followed by 3 centrifugations at 30,000 g for 15 minutes with intermediate take up of the pellets in the Tris buffer pH 7.4.
# as §1, with “(The” for “The”, “with 3×10^-5” for “at 3.10^-5”, “times).” for “times.”, “determined).” for “determined.”
# as §2
# [4] = rabbit uterus membrane (estradiol pre-treated), 125I angiotensin II, 25° C., 150 minutes, read-out: AT2 Receptor IC50
# [5] = rat liver membrane, 125I angiotensin II, 25° C., 150 minutes, read-out: AT1 Receptor IC50
# [6] = products P1 to P13, expressed in nM, read-out: On AT2 receptor IC50
# [7] = products P1 to P13, expressed in nM, read-out: On AT1 receptor IC50
"IC50 [1, 4]","IC50 [3, 5]","IC50 [1, 6]","IC50 [3, 7]",SMILES,ED50 [2]
5.2 nM,0.7 nM,,,"CCCCc1nc(SC)c(C(C)(O)C(=O)O)n1Cc1ccc(-c2ccccc2S(=O)(=O)NC(=O)OCc2ccccc2)cc1 (stereo not drawn) [Example 7, 2-butyl alpha-hydroxy alpha-methyl 4-(methylthio) 1-[(2'-((((phenylmethoxy)carbonyl)amino)sulphonyl) (1,1'-biphenyl) 4-yl)methyl] 1H-imidazole 5-acetic acid]",0.6 mg/kg
,,,,"CCCCc1nc(SC)c(C(=O)O)n1Cc1ccc(-c2ccccc2S(=O)(=O)NC(=O)C(c2ccccc2)c2ccccc2)cc1 [Example 30, 2-butyl 1-[(2'-(((diphenylacetyl)amino)sulphonyl) (1,1'-biphenyl) 4-yl)methyl] 4-(methylthio) 1H-imidazole 5-carboxylic acid]",0.93 mg/kg
0.8 nM,0.5 nM,,,"CCCCC(O)(C(=O)O)c1c(SC)nc(CCC)n1Cc1ccc(-c2ccccc2S(=O)(=O)NC(=O)NCc2ccccc2)cc1 (stereo not drawn) [Example 32, sodium alpha-butyl alpha-hydroxy 4-(methylthio) 1-[(2'-(((((phenylmethyl)amino)carbonyl)amino)sulphonyl) (1,1'-biphenyl) 4-yl)methyl] 2-propyl 1H-imidazole 5-acetate]",0.46 mg/kg
,,,,"CCCCc1nc(SC)c(C(N)=O)n1Cc1ccc(-c2ccccc2S(=O)(=O)NC(=O)NCCC)cc1 [Example 35, 2-butyl 4-(methylthio) 1-((2'-((((propylamino)carbonyl)amino)sulphonyl) (1,1'-biphenyl) 4-yl)methyl) 1H-imidazole 5-carboxamide]",0.05 mg/kg
,,,,CCCc1nc(SC(F)F)c(C(=O)O)n1Cc1ccc(-c2ccccc2S(=O)(=O)NC(=O)NCCc2ccccc2)cc1 [Example 48],0.64 mg/kg
7.4 nM,0.06 nM,,,"CCCc1nc(SC(F)F)c(C(=O)O)n1Cc1ccc(-c2ccccc2S(=O)(=O)NC(=O)NCc2cccs2)cc1 [Example 50, 4-((difluoromethyl)thio) 2-propyl 1-((2'-(((((2-thienylmethyl)amino)carbonyl)amino)sulphonyl) (1,1'-biphenyl) 4-yl)methyl) 1H-imidazole 5-carboxylic acid]",0.13 mg/kg
,,,,"CCCc1nc(SC)c(C(=O)O)n1Cc1ccc(-c2ccccc2S(=O)(=O)NC(=O)Nc2ccccc2)cc1 [Example 62, 4-(methylthio) 1-((2'-((((phenylamino)carbonyl)amino)sulphonyl) (1,1'-biphenyl) 4-yl)methyl) 2-propyl 1H-imidazole 5-carboxylic acid]",0.52 mg/kg
,,,,"CCCCc1nc(SC)c(C(O)CC(=O)O)n1Cc1ccc(-c2ccccc2S(=O)(=O)NC(=O)NCc2ccccc2)cc1 (stereo not drawn) [Example 65, 2-butyl beta-hydroxy 4-(methylthio) 1-((2'-(((((phenylmethyl)amino)carbonyl)amino)sulphonyl) (1,1'-biphenyl) 4-yl)methyl) 1H-imidazole 5-propionic acid]",0.05 mg/kg
,0.05 nM,17 nM,0.23 nM,"CCCCc1nc(SC)c(C(=O)O)n1Cc1ccc(-c2ccccc2S(=O)(=O)NC(=O)NCC2CCCCC2)cc1 [Example 75, 2-butyl 1-((2'-(((((cyclohexylmethyl)amino)carbonyl)amino)sulphonyl) (1,1'-biphenyl) 4-yl)methyl) 4-(methylthio) 1H-imidazole 5-carboxylic acid]",0.35 mg/kg
,,54 nM,0.8 nM,"CCCCc1nc(SC)c(C(=O)O)n1Cc1ccc(-c2ccccc2S(=O)(=O)NC(=O)OCc2ccccc2)cc1 [Example P12, 2-butyl 4-(methylthio) 1-[(2'-(((phenylmethoxycarbonyl)amino)sulphonyl) (1,1'-biphenyl) 4-yl)methyl] 1H-imidazole 5-carboxylic acid]",
,,63 nM,5.9 nM,"CCCCc1nc(OC)c(C=O)n1Cc1ccc(-c2ccccc2S(=O)(=O)NC(=O)OCc2ccccc2)cc1 [Example P13, (phenylmethyl) ((4'-((2-butyl 5-formyl 4-methoxy 1H-imidazol 1-yl)methyl) (1,1'-biphenyl) 2-yl)sulphonyl) carbamate]",
